From US12077768B2, “Plants having increased tolerance to herbicides” (BASF AGRO B.V., priority 2013, dated 2024)
Read-outs that look alike come from different tables or passages of the source.

Tests used:
[1] = test system: empty vector-transformed leaf discs; test: PSII yield inhibition (chlorophyll fluorescence, imaging PAM) in empty vector-transformed tobacco leaf discs; assay type: cell-based; conditions: Nicotiana benthamiana, read-out: IC50 of PSII yield inhibition
[2] = test system: mutated PPO sequences (e.g. SEQ ID NOs: 1, 30, 31, 11, 37, and 117) as wildtype or with respective mutations, expressed in leaf discs; test: Herbicide tolerance of transiently transformed tobacco leaf discs expressing wildtype or mutated PPO: tolerance factors from IC50 of PSII yield inhibition versus empty vector; assay type: cell-based, Nicotiana benthamiana; conditions: 48 h herbicide treatment

With CC(C)N(C)S(=O)(=O)NC(=O)c1cc(-n2c(=O)cc(C(F)(F)F)n(C)c2=O)c(F)cc1Cl [Saflufenacil, saflufenacil] as the compound, how does the IC50 ([1]; 48 h) read?
Its IC50 is 0.11 µM.

Which IC50 ([1]; empty vector-transformed leaf discs, treated for 48 h) does the source give for C#CCN1C(=O)C(F)(F)Oc2cc(F)c(-n3c(=O)n(C)c(=S)n(C)c3=O)cc21 [1,5-dimethyl-6-thioxo-3-(2,2,7-trifluoro-3-oxo-4-(prop-2-ynyl)-3,4-dihydro-2H-benzo[b][1,4]oxazin-6-yl)-1,3,5-triazinane-2,4-dione] here?
Its IC50 is 0.011 µM.

And the “Tolerance factor (IC50 of PSII yield inhibition, transformed versus empty vector-transformed leaf discs)” value ([2]; Bn_PPO2_A_L371E_F394M, Brassica napus, SEQ ID 117)?
Its value is 10.

What about the “Tolerance factor (IC50 of PSII yield inhibition, transformed versus empty vector-transformed leaf discs)” value ([2]; Bn_PPO2_A_L371E_F394V, Brassica napus, SEQ ID 117) of the same compound?
Its value is 13.

What about the “Tolerance factor (IC50 of PSII yield inhibition, transformed versus empty vector-transformed leaf discs)” value ([2]; Bn_PPO2_A_L371Q_F394M, Brassica napus, SEQ ID 117) of the same compound?
The value was 10.

What about the “Tolerance factor (IC50 of PSII yield inhibition, transformed versus empty vector-transformed leaf discs)” value ([2]; Bn_PPO2_A_L371Q_F394V, Brassica napus, SEQ ID 117) of the same compound?
The value was 14.

And the “Tolerance factor (IC50 of PSII yield inhibition, transformed versus empty vector-transformed leaf discs)” value ([2]; Bn_PPO2_A_R99A_F394V, Brassica napus, SEQ ID 117)?
The value was 1.

And the “Tolerance factor (IC50 of PSII yield inhibition, transformed versus empty vector-transformed leaf discs)” value ([2]; Bn_PPO2_A_wt, Brassica napus, SEQ ID 117)?
The value was 1.

And the “Tolerance factor (IC50 of PSII yield inhibition, transformed versus empty vector-transformed leaf discs)” value ([2]; Gm_PPO2_L367E_F390M, Glycine max, SEQ ID 11)?
Its value is 50.

What about the “Tolerance factor (IC50 of PSII yield inhibition, transformed versus empty vector-transformed leaf discs)” value ([2]; Gm_PPO2_L367E_F390V, Glycine max, SEQ ID 11) of the same compound?
The value was 15.

And the “Tolerance factor (IC50 of PSII yield inhibition, transformed versus empty vector-transformed leaf discs)” value ([2]; Gm_PPO2_L367Q_F390M, Glycine max, SEQ ID 11)?
The value was 14.

What about the “Tolerance factor (IC50 of PSII yield inhibition, transformed versus empty vector-transformed leaf discs)” value ([2]; Gm_PPO2_L367Q_F390V, Glycine max, SEQ ID 11) of the same compound?
Its value is 26.

And the “Tolerance factor (IC50 of PSII yield inhibition, transformed versus empty vector-transformed leaf discs)” value ([2]; Gm_PPO2_R98A_F390V, Glycine max, SEQ ID 11)?
Its value is 14.

What about the “Tolerance factor (IC50 of PSII yield inhibition, transformed versus empty vector-transformed leaf discs)” value ([2]; Gm_PPO2_wt, Glycine max, SEQ ID 11) of the same compound?
The value was 1.

What about the “Tolerance factor (IC50 of PSII yield inhibition, transformed versus empty vector-transformed leaf discs)” value ([2]; Os_PPO2_L374E_F397M, Oryza sativa, SEQ ID 37) of the same compound?
Its value is 2454.

And the “Tolerance factor (IC50 of PSII yield inhibition, transformed versus empty vector-transformed leaf discs)” value ([2]; Os_PPO2_L374E_F397V, Oryza sativa, SEQ ID 37)?
The value was 43.

And the “Tolerance factor (IC50 of PSII yield inhibition, transformed versus empty vector-transformed leaf discs)” value ([2]; Os_PPO2_L374Q_F397M, Oryza sativa, SEQ ID 37)?
Its value is 14.

And the “Tolerance factor (IC50 of PSII yield inhibition, transformed versus empty vector-transformed leaf discs)” value ([2]; Zm_PPO2_L410E_F433M, Zea mays, SEQ ID 30, 31)?
Its value is 8766.

What about the “Tolerance factor (IC50 of PSII yield inhibition, transformed versus empty vector-transformed leaf discs)” value ([2]; Zm_PPO2_L410Q_F433M, Zea mays, SEQ ID 30, 31) of the same compound?
The value was 385.

What about the “Tolerance factor (IC50 of PSII yield inhibition, transformed versus empty vector-transformed leaf discs)” value ([2]; Zm_PPO2_L410Q_F433V, Zea mays, SEQ ID 30, 31) of the same compound?
The value was 15.

And the “Tolerance factor (IC50 of PSII yield inhibition, transformed versus empty vector-transformed leaf discs)” value ([2]; Zm_PPO2_R130A_F433V, Zea mays, SEQ ID 30, 31)?
Its value is 8766.
